Data: patent US8133998B2, “Bicyclic pyrimidine derivatives as calcium channel blockers” (Zalicus Pharmaceuticals, Ltd., priority 2007, dated 2012)

Biological target: T1, human α1H T-type channels (Homo sapiens, UniProt O95180)
T1 construct: expressed in transfected cells; host or cells: HEK 293
Assay: T-type calcium channel block, whole cell patch clamp in HEK cells
Type: cell-based
Conditions: HEK cells stably expressing human α1H; measured at 1 μM drug; mainly non-inactivated protocol
Description: (§1) T-type calcium channel blocking activity was assayed in human embryonic kidney cells, HEK 293, stably transfected with the T-type calcium channel subunits. Briefly, cells were cultured in Dulbecco's modified eagle medium (DMEM) supplemented with 10% fetal bovine serum, 200 U/ml penicillin and 0.2 mg/ml streptomycin at 37° C. with 5% CO2. At 85% confluency cells were split with 0.25% trypsin/1 mM EDTA and plated at 10% confluency on glass coverslips. At 12 hours the medium was replaced and the cells stably transfected using a standard calcium phosphate protocol and the appropriate calcium channel cDNA's. Fresh DMEM was supplied and the cells transferred to 28° C./5% CO2. Cells were incubated for 1 to 2 days prior to whole cell recording.
(§2) Standard patch-clamp techniques were employed to identify blockers of T-type currents. Briefly, previously described HEK cell lines stably expressing human α1G, α1H and α1I T-type channels were used for all the recordings (passage #: 4-20, 37° C., 5% CO2). Whole cell patch clamp experiments were performed using an Axopatch 200B amplifier (Axon Instruments, Burlingame, Calif.) linked to a personal computer equipped with pCLAMP software. Data were analyzed using Clampfit (Axon Instruments) and SigmaPlot 4.0 (Jandel Scientific). To obtain T-type currents, plastic dishes containing semi-confluent cells were positioned on the stage of a ZEISS AXIOVERT S100 microscope after replacing the culture medium with external solution (see below). Whole-cell patches were obtained using pipettes (borosilicate glass with filament, O.D.: 1.5 mm, I.D.: 0.86 mm, 10 cm length), fabricated on a SUTTER P-97 puller with resistance values of ˜5 MΩ (see below for internal solution).
(§3) In the non-inactivating protocol, the holding potential is set at −110 mV and with a pre-pulse at −100 mV for 1 second prior to the test pulse at −40 mV for 50 ms. In the inactivation protocol, the pre-pulse is at approximately −85 mV for 1 second, which inactivates about 15% of the T-type channels.
(§4) Test compounds were dissolved in external solution, 0.1-0.01% DMSO. After ˜10 min rest, they were applied by gravity close to the cell using a WPI microfil tubing. The “non-inactivated” pre-pulse was used to examine the resting block of a compound. The “inactivated” protocol was employed to study voltage-dependent block. However, the initial data shown below were mainly obtained using the non-inactivated protocol only. Kd values are shown for various compounds of the invention in Table 4 measured at 1 μM for the drug of interest except for compound 18 which was measured at 200 nM.

T1 sequence (O95180 whole entry): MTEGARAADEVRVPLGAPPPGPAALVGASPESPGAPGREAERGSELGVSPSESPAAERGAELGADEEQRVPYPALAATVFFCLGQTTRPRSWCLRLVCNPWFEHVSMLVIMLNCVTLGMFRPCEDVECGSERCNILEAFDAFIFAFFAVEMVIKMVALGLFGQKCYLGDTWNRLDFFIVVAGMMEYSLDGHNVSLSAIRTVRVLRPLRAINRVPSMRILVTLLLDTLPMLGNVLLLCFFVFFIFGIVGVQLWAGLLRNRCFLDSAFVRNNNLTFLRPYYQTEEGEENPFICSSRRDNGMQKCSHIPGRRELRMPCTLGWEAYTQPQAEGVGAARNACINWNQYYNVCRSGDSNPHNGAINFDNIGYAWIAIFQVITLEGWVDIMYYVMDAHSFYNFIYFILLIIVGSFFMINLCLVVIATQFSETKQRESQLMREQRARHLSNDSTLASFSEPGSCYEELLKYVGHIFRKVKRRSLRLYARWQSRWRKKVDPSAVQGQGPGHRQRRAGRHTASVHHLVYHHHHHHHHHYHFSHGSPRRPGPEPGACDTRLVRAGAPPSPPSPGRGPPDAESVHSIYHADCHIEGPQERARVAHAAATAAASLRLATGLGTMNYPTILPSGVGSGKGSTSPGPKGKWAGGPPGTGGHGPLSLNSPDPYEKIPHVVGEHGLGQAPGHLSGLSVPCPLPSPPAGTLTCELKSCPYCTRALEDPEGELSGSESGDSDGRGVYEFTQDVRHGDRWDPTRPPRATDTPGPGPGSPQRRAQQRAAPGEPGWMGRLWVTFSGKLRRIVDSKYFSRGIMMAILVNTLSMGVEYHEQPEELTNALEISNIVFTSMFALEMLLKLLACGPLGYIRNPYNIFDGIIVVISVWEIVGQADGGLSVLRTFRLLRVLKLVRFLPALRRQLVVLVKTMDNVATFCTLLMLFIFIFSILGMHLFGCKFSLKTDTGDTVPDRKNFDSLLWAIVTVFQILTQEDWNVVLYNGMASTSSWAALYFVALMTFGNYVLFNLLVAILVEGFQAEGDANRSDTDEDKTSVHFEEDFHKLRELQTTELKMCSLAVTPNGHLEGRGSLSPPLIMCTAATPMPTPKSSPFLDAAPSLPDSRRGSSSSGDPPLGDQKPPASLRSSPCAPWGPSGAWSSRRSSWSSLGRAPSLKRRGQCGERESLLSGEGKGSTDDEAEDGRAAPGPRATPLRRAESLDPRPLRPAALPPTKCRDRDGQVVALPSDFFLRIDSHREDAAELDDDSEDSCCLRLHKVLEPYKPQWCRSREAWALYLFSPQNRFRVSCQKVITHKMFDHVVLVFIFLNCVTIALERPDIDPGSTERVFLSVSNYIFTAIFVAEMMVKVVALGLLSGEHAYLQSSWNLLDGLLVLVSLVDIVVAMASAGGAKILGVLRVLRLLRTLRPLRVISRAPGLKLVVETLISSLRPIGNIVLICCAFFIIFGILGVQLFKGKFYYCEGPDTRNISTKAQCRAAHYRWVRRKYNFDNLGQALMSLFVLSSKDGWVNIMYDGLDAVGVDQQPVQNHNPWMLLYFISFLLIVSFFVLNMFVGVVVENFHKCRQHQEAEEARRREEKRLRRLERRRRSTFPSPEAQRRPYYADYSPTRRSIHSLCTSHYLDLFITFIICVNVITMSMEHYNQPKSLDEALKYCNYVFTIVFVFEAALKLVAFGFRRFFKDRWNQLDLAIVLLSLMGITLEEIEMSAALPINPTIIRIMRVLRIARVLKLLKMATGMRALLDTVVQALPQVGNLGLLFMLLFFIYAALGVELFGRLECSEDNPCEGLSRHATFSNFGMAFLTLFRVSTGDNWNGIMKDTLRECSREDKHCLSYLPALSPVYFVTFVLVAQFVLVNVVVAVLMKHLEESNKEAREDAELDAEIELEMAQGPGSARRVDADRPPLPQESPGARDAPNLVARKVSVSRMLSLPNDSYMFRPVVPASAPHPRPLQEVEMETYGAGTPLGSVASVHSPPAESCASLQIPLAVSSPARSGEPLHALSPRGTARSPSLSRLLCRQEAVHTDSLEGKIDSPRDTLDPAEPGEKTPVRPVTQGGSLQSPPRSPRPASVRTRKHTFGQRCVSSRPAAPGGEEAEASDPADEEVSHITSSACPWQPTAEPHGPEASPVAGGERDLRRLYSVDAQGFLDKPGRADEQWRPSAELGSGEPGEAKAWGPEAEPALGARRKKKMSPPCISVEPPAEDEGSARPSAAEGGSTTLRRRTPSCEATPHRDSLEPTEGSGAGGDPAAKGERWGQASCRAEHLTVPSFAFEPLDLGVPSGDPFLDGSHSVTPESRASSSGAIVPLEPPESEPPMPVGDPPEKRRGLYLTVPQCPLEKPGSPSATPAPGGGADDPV

| SMILES | Kd [nM] |
| --- | --- |
| CCN(CC)C(=O)Cn1cnc2sc(C(=O)N3CCN(c4cccc(Cl)c4)CC3)c(C)c2c1=O [Compound 1, 2-(6-(4-(3-chlorophenyl)piperazine-1-carbonyl)-5-methyl-4-oxothieno[2,3-d]pyrimidin-3(4H)-yl)-N,N-diethylacetamide] | 890 |
| CCN(CC)C(=O)Cn1cnc2sc(C(=O)N3CCN(c4ccc(Cl)cc4)CC3)c(C)c2c1=O [Compound 5, 2-(6-(4-(4-chlorophenyl)piperazine-1-carbonyl)-5-methyl-4-oxothieno[2,3-d]pyrimidin-3(4H)-yl)-N,N-diethylacetamide] | 620 |
| Cc1c(C(=O)N2CCN(c3ccccc3F)CC2)sc2ncn(CC(=O)Nc3ccccc3)c(=O)c12 [Compound 51, 2-(6-(4-(2-fluorophenyl)piperazine-1-carbonyl)-5-methyl-4-oxothieno[2,3-d]pyrimidin-3(4H)-yl)-N-phenylacetamide] | 570 |
| Cc1c(C(=O)N2CCN(c3ccc(F)cc3)CC2)sc2ncn(CC(=O)N3CCC(F)(F)C3)c(=O)c12 [Compound 90] | 2440 |

Further lines, results first:

| Kd [nM] | SMILES |
| --- | --- |
| 1140 | CCN(CC)C(=O)Cn1cnc2sc(C(=O)N3CCN(c4cccc(F)c4)CC3)c(C)c2c1=O [Compound 7, N,N-diethyl-2-(6-(4-(3-fluorophenyl)piperazine-1-carbonyl)-5-methyl-4-oxothieno[2,3-d]pyrimidin-3(4H)-yl)acetamide] |
| 2140 | Cc1c(C(=O)N2CCN(c3ccccc3)CC2)sc2ncn(CC(=O)NC(C)(C)C)c(=O)c12 [Compound 13, N-tert-butyl-2-(5-methyl-4-oxo-6-(4-phenylpiperazine-1-carbonyl)thieno[2,3-d]pyrimidin-3(4H)-yl)acetamide] |
| 950 | Cc1c(C(=O)N2CCN(c3cccc([N+](=O)[O-])c3)CC2)sc2ncn(CC(=O)NC3CCCCC3)c(=O)c12 [Compound 29, N-cyclohexyl-2-(5-methyl-6-(4-(3-nitrophenyl)piperazine-1-carbonyl)-4-oxothieno[2,3-d]pyrimidin-3(4H)-yl)acetamide] |
| 440 | Cc1c(C(=O)N2CCN(c3ccccc3F)CC2)sc2ncn(C(C)C(=O)NC3CCCCC3)c(=O)c12 (stereo not shown) [Compound 34, N-cyclohexyl-2-(6-(4-(2-fluorophenyl)piperazine-1-carbonyl)-5-methyl-4-oxothieno[2,3-d]pyrimidin-3(4H)-yl)propanamide] |
| 830 | Cc1c(C(=O)N2CCN(c3ccccc3)CC2)sc2ncn(CC(=O)NC3CCCC3)c(=O)c12 [Compound 41, N-cyclopentyl-2-(5-methyl-4-oxo-6-(4-phenylpiperazine-1-carbonyl)thieno[2,3-d]pyrimidin-3(4H)-yl)acetamide] |
| 520 | Cc1c(C(=O)N2CCN(c3ccccc3)CC2)sc2ncn(C(C)C(=O)NC3CCCC3)c(=O)c12 (stereo not shown) [Compound 46, N-cyclopentyl-2-(5-methyl-4-oxo-6-(4-phenylpiperazine-1-carbonyl)thieno[2,3-d]pyrimidin-3(4H)-yl)propanamide] |
| 560 | Cc1c(C(=O)N2CCN(c3ccccc3F)CC2)sc2ncn(C(C)C(=O)NC3CCCC3)c(=O)c12 (stereo not shown) [Compound 47, N-cyclopentyl-2-(6-(4-(2-fluorophenyl)piperazine-1-carbonyl)-5-methyl-4-oxothieno[2,3-d]pyrimidin-3(4H)-yl)propanamide] |
| 4640 | Cc1c(C(=O)N2CCN(c3ccccc3F)CC2)sc2ncn(CC(=O)N3CCC(F)(F)C3)c(=O)c12 [Compound 79, 3-(2-(3,3-difluoropyrrolidin-1-yl)-2-oxoethyl)-6-(4-(2-fluorophenyl)piperazine-1-carbonyl)-5-methylthieno[2,3-d]pyrimidin-4(3H)-one] |
| 6310 | Cc1c(C(=O)N2CCN(c3ccc(F)cc3)CC2)sc2ncn(CC(=O)N3CC[C@H](F)C3)c(=O)c12 [Compound 91, (S)-6-(4-(4-fluorophenyl)-piperazine-1-carbonyl)-3-(2-(3-fluoropyrrolidin-1-yl)-2-oxoethyl)-5-methylthieno[2,3-d]pyrimidin-4(3H)-one] |

Biological target: T2, human α1G T-type channels (Homo sapiens, UniProt O43497)
T2 construct: expressed in transfected cells; host or cells: HEK 293
T2 sequence (O43497 whole entry): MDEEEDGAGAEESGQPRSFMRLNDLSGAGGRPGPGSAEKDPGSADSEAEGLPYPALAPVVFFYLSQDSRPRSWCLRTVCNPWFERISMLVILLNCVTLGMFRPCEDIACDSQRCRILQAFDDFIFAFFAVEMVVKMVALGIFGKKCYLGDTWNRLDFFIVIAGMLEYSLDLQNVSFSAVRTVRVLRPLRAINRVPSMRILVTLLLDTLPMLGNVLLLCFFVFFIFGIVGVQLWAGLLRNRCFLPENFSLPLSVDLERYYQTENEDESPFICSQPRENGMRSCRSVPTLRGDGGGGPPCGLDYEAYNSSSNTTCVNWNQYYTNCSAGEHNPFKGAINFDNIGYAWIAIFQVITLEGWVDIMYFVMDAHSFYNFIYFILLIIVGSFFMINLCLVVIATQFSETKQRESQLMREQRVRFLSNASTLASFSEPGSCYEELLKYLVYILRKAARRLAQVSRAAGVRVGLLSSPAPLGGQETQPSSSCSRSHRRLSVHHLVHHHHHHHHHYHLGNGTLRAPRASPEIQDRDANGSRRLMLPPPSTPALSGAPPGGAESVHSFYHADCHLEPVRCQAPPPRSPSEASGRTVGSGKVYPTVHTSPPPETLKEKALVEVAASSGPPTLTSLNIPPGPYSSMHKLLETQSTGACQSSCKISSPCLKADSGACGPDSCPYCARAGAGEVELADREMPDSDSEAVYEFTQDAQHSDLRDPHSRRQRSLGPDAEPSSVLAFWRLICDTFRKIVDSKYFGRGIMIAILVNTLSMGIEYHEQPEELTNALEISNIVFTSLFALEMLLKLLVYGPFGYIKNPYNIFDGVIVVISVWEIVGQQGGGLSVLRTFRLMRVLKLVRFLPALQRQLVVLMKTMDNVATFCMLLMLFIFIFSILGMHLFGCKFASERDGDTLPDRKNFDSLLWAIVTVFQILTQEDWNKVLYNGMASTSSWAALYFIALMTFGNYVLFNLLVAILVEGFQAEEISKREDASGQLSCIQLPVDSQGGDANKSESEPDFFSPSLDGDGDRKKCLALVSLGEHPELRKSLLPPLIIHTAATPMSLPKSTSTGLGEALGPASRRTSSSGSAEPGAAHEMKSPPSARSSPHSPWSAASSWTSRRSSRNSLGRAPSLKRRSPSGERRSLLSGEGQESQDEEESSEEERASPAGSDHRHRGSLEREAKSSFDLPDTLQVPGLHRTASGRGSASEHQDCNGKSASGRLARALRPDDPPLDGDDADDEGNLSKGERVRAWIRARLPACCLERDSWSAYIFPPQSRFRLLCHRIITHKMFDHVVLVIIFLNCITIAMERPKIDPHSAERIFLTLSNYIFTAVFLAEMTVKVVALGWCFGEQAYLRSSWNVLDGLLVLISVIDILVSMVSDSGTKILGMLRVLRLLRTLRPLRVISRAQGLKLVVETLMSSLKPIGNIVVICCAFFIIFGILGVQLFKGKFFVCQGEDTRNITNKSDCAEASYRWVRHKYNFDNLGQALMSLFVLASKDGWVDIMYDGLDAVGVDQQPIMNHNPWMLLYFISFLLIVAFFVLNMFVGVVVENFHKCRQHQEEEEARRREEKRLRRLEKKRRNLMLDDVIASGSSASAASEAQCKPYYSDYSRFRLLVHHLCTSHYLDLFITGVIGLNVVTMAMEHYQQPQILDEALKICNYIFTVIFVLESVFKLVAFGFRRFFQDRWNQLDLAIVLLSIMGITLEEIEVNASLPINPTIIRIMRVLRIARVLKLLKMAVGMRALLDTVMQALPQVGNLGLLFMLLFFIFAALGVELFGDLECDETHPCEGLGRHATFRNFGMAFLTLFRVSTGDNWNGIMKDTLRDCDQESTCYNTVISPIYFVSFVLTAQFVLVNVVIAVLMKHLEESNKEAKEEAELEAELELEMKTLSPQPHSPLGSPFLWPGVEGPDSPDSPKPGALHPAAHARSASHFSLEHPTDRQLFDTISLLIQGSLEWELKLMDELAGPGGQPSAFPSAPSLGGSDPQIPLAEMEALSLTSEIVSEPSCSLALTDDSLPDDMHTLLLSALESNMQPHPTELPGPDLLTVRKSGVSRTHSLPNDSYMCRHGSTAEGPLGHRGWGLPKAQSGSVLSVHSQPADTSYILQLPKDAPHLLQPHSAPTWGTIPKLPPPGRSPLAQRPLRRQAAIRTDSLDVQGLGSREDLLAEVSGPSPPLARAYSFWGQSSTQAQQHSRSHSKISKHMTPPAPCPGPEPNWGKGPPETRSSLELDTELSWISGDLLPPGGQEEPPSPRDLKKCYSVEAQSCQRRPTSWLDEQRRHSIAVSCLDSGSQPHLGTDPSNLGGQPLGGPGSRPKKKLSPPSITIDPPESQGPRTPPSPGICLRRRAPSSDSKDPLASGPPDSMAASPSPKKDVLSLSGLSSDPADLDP
Assay: as above
Type: cell-based
Conditions: HEK cells stably expressing human α1G; measured at 1 μM drug; mainly non-inactivated protocol
Description: as §1, §2, §3, §4

| SMILES | Kd [nM] |
| --- | --- |
| CCN(CC)C(=O)Cn1cnc2sc(C(=O)N3CCN(c4cccc(Cl)c4)CC3)c(C)c2c1=O [Compound 1, 2-(6-(4-(3-chlorophenyl)piperazine-1-carbonyl)-5-methyl-4-oxothieno[2,3-d]pyrimidin-3(4H)-yl)-N,N-diethylacetamide] | 2440 |
| CCN(CC)C(=O)Cn1cnc2sc(C(=O)N3CCN(c4ccc(Cl)cc4)CC3)c(C)c2c1=O [Compound 5, 2-(6-(4-(4-chlorophenyl)piperazine-1-carbonyl)-5-methyl-4-oxothieno[2,3-d]pyrimidin-3(4H)-yl)-N,N-diethylacetamide] | 1230 |
| CCN(CC)C(=O)Cn1cnc2sc(C(=O)N3CCN(c4ccccc4C(F)(F)F)CC3)c(C)c2c1=O [Compound 9, N,N-diethyl-2-(5-methyl-4-oxo-6-(4-(2-(trifluoromethyl)phenyl)piperazine-1-carbonyl)thieno[2,3-d]pyrimidin-3(4H)-yl)acetamide] | 3730 |
| Cc1c(C(=O)N2CCC(C(F)(F)F)CC2)sc2ncn(CC(=O)Nc3cccc(C(F)(F)F)c3)c(=O)c12 [Compound 63] | 1840 |
| Cc1c(C(N)=O)sc2ncn(CC(=O)Nc3cc(C(F)(F)F)cc(C(F)(F)F)c3)c(=O)c12 [Compound 67, 3-(2-(3,5-bis(trifluoromethyl)phenylamino)-2-oxoethyl)-5-methyl-4-oxo-3,4-dihydrothieno[2,3-d]pyrimidine-6-carboxamide] | 2800 |
| Cc1c(C(=O)NC(C)(C)C)sc2ncn(CC(=O)Nc3cc(C(F)(F)F)cc(C(F)(F)F)c3)c(=O)c12 [Compound 68, 3-(2-(3,5-bis(trifluoromethyl)phenylamino)-2-oxoethyl)-N-tert-butyl-5-methyl-4-oxo-3,4-dihydrothieno[2,3-d]pyrimidine-6-carboxamide] | 400 |
| Cc1c(C(=O)N2CCCC2)sc2ncn(CC(=O)Nc3cc(C(F)(F)F)cc(C(F)(F)F)c3)c(=O)c12 [Compound 70, N-(3,5-bis(trifluoromethyl)phenyl)-2-(5-methyl-4-oxo-6-(pyrrolidine-1-carbonyl)thieno[2,3-d]pyrimidin-3(4H)-yl)acetamide] | 5310 |
| Cc1c(C(=O)N2CC[C@H](F)C2)sc2ncn(CC(=O)Nc3cc(C(F)(F)F)cc(C(F)(F)F)c3)c(=O)c12 [Compound 71, (S)-N-(3,5-bis(trifluoromethyl)phenyl)-2-(5-methyl-4-oxo-6-(3-fluoropyrrolidine-1-carbonyl)thieno[2,3-d]pyrimidin-3(4H)-yl)acetamide] | > 74300 |
| Cc1c(C(=O)N2CCN(c3cc(C(F)(F)F)cc(C(F)(F)F)c3)CC2)sc2ncn(CCN3CCCC3=O)c(=O)c12 [Compound 93, 6-(4-(3,5-bis(trifluoromethyl)phenyl)piperazine-1-carbonyl)-5-methyl-3-(2-(2-oxopyrrolidin-1-yl)ethyl)thieno[2,3-d]pyrimidin-4(3H)-one] | 2700 |
| Cc1c(C(=O)N2CCN(c3ccc(Cl)cc3)CC2)sc2ncn(CCN3CCCC3=O)c(=O)c12 [Compound 94, 6-(4-(4-chlorophenyl)piperazine-1-carbonyl)-5-methyl-3-(2-(2-oxopyrrolidin-1-yl)ethyl)thieno[2,3-d]pyrimidin-4(3H)-one] | 20300 |
| O=C(Cn1cnc2ccc(C(=O)N3CCN(c4cccc(Cl)c4)CC3)cc2c1=O)N1CCCC1 [Compound 115, 6-(4-(3-chlorophenyl)piperazine-1-carbonyl)-3-(2-oxo-2-(pyrrolidin-1-yl)ethyl) quinazolin-4(3H)-one] | 4280 |
| CCN(CC(F)(F)F)C(=O)Cn1cnc2sc(C(=O)N3CCN(c4ccccc4F)CC3)c(C)c2c1=O [Compound 128, N-ethyl-2-(6-(4-(2-fluoro-phenyl)piperazine-1-carbonyl)-5-methyl-4-oxothieno[2,3-d]pyrimidin-3(4H)-yl)-N-(2,2,2-trifluoroethyl)acetamide] | 3600 |

The next lines start with the values.

| Kd [nM] | SMILES |
| --- | --- |
| 4120 | CCN(CC)C(=O)Cn1cnc2sc(C(=O)N3CCN(c4ccccc4Cl)CC3)c(C)c2c1=O [Compound 4, 2-(6-(4-(2-chlorophenyl)piperazine-1-carbonyl)-5-methyl-4-oxothieno[2,3-d]pyrimidin-3(4H)-yl)-N,N-diethylacetamide] |
| 2660 | Cc1c(C(=O)N2CCN(c3ccccc3F)CC2)sc2ncn(CCN3CCCC3=O)c(=O)c12 [Compound 95, 6-(4-(2-fluorophenyl)piperazine-1-carbonyl)-5-methyl-3-(2-(2-oxopyrrolidin-1-yl)ethyl)thieno[2,3-d]pyrimidin-4(3H)-one] |
| 1560 | Cc1c(C(=O)N2CCN(c3cccc(Cl)c3)CC2)sc2ncn(CC(=O)N3CCCC3)c(=O)c12 [Compound 136, 6-(4-(3-chloro-phenyl)piperazine-1-carbonyl)-5-methyl-3-(2-oxo-2-(pyrrolidin-1-yl)ethyl)thieno[2,3-d]pyrimidin-4(3H)-one] |
